Among the data in patent US12208146B2, “Reconstituted HDL nanoparticles for delivery of radioactive agents and uses thereof” (UNIVERSITY OF NORTH TEXAS HEALTH SCIENCE CENTER, priority 2018, dated 2025) are total uptake and incorporation into cells values, retold here.

The test has as its system PC3 cells. The test can be described thus: Cell uptake experiments with and without SR-B1 blocking by unlabeled rHDL. Conditions: for total uptake: PC-3 cells. Type of test: cell-based. Here is the method:
PC3 cells were harvested and diluted in fresh medium (1×10^5 cells/well, 0.5 mL) and then seeded in 24-well tissue culture plates. After 24 h, the medium was removed, and the cells were incubated with 100 μL/well of phosphate buffered saline (PBS) and the following treatments per well: 2 kBq of ^99mTcO4−, and 30 μL of 1 μg/μL of ^99mTc-rHDL, ^99mTc-Liposome, and ^99mTc-HYNIC-DA for 45 min at 37° C. Then, cells were rinsed two times with 0.5 mL of ice-cold PBS. These two washes were combined and represent the ^99mTcO4^−, ^99mTc-rHDL, ^99mTc-Liposome, and ^99mTc-HYNIC-DA not bounded to cells. Cells were washed with 1 mL of PBS and later were incubated twice with 0.5 mL of Glycine-HCl (50 mM, pH 2.8). The Glycine-HCl washes were combined, these washed recovered the ^99mTcO4^−, ^99mTc-rHDL, ^99mTc-Liposome, and ^99mTc-HYNIC-DA adhered or bounded to cell membrane. Cells were washed with 1 mL of PBS, and finally were washed twice with 0.5 mL of 1.0 M NaOH (lysed cells) to recover the ^99mTcO4^−, ^99mTc-rHDL, ^99mTc-Liposome, and ^99mTc-HYNIC-DA internalized in the cytoplasm (washes were combined). Radioactivity was measured in the initial PBS, Glycine-HCl and NaOH combined washes using a NaI(Tl) detector (NML Inc. USA). The initial activity of each treatment was taken to represent 100% of activity. In parallel, the nonspecific binding was determined using 30 μL of 60 μg/μL of unlabeled rHDL, which blocked SR-B1 receptors on PC3 cells.

For the molecule `[O]=[99Tc](=[O])(=[O])[O-]` [^99m TcO4^−], the total uptake is 2.9% (with SR-B1 blocking) and 2.8% (without SR-B1 blocking). Also, under “control groups, data not shown”, the incorporation into cells result was “only marginal incorporation into cells”.
